According to the NIST ThermoML archive (doi:10.1016/j.jct.2005.03.020):
± gives the expanded uncertainty stated by the source.

How the values were obtained:
[1] = excess molar enthalpy (molar enthalpy of mixing); xn = mol fraction of the nth substance listed; details: 298.15 K, 101.33 kPa, Liquid
[2] = xn = mol fraction of the nth substance listed; details: 298.15 K, 101.33 kPa, Liquid

In the case of `CCCCC(=O)OCC` [ethyl pentanoate] + ClCCCl, the excess molar enthalpy ([1]; x2 = 0.0371) is reported as -0.00712 ± 0.000478 kcal/mol, the excess molar enthalpy ([1]; x2 = 0.098) is reported as -0.0147 ± 0.000598 kcal/mol and the excess molar enthalpy ([1]; x2 = 0.126) is reported as -0.0245 ± 0.000765 kcal/mol. For the same compound, the excess molar enthalpy ([1]; x2 = 0.1732) was -0.0363 ± 0.000932 kcal/mol, the excess molar enthalpy ([1]; x2 = 0.2196) was -0.0475 ± 0.00112 kcal/mol and the excess molar enthalpy ([1]; x2 = 0.2666) was -0.0614 ± 0.00134 kcal/mol. The excess molar enthalpy ([1]; x2 = 0.3122) was -0.0744 ± 0.00153 kcal/mol, the excess molar enthalpy ([1]; x2 = 0.3542) was -0.0839 ± 0.00167 kcal/mol and the excess molar enthalpy ([1]; x2 = 0.4265) was -0.0924 ± 0.00179 kcal/mol. It also gave an excess molar enthalpy ([1]; x2 = 0.4641) of -0.0946 ± 0.00184 kcal/mol, an excess molar enthalpy ([1]; x2 = 0.5103) of -0.0954 ± 0.00184 kcal/mol and an excess molar enthalpy ([1]; x2 = 0.5638) of -0.0959 ± 0.00186 kcal/mol. It also gave an excess molar enthalpy ([1]; x2 = 0.626) of -0.0916 ± 0.00179 kcal/mol, an excess molar enthalpy ([1]; x2 = 0.7011) of -0.0817 ± 0.00165 kcal/mol and an excess molar enthalpy ([1]; x2 = 0.7962) of -0.0618 ± 0.00134 kcal/mol. It also gave an excess molar enthalpy ([1]; x2 = 0.896) of -0.0363 ± 0.000932 kcal/mol, a mass density ([2]; x1 = 0.0345) of 1220.93 ± 0.78 kg/m3 and a mass density ([2]; x1 = 0.0687) of 1198.23 ± 0.73 kg/m3. For the same compound, the mass density ([2]; x1 = 0.1042) was 1176.06 ± 0.69 kg/m3, the mass density ([2]; x1 = 0.1425) was 1153.66 ± 0.64 kg/m3 and the mass density ([2]; x1 = 0.1817) was 1132.12 ± 0.6 kg/m3. It also gave a mass density ([2]; x1 = 0.2273) of 1108.84 ± 0.56 kg/m3, a mass density ([2]; x1 = 0.2723) of 1087.35 ± 0.53 kg/m3 and a mass density ([2]; x1 = 0.324) of 1064.47 ± 0.49 kg/m3. For the same compound, the mass density ([2]; x1 = 0.3767) was 1042.83 ± 0.46 kg/m3, the mass density ([2]; x1 = 0.4332) was 1021.3 ± 0.44 kg/m3 and the mass density ([2]; x1 = 0.4956) was 999.37 ± 0.42 kg/m3. It also gave a mass density ([2]; x1 = 0.5633) of 977.31 ± 0.45 kg/m3, a mass density ([2]; x1 = 0.6342) of 956.13 ± 0.49 kg/m3 and a mass density ([2]; x1 = 0.7134) of 934.52 ± 0.53 kg/m3. For the same compound, the mass density ([2]; x1 = 0.7992) was 912.89 ± 0.57 kg/m3 and the mass density ([2]; x1 = 0.894) was 893.96 ± 0.61 kg/m3.

With `ClCCCCCCCl` [1,6-dichlorohexane] + CCCCC(=O)OCC the excess molar enthalpy ([1]; x2 = 0.0607) was -0.00433 ± 0.00043 kcal/mol, the excess molar enthalpy ([1]; x2 = 0.127) was -0.00896 ± 0.000502 kcal/mol and the excess molar enthalpy ([1]; x2 = 0.1968) was -0.0146 ± 0.000598 kcal/mol. It also gave an excess molar enthalpy ([1]; x2 = 0.264) of -0.0205 ± 0.000693 kcal/mol, an excess molar enthalpy ([1]; x2 = 0.3289) of -0.0265 ± 0.000789 kcal/mol and an excess molar enthalpy ([1]; x2 = 0.389) of -0.0331 ± 0.000884 kcal/mol. The excess molar enthalpy ([1]; x2 = 0.4445) was -0.0397 ± 0.00098 kcal/mol, the excess molar enthalpy ([1]; x2 = 0.4953) was -0.0439 ± 0.00105 kcal/mol and the excess molar enthalpy ([1]; x2 = 0.5409) was -0.0448 ± 0.00108 kcal/mol. The excess molar enthalpy ([1]; x2 = 0.5672) was -0.045 ± 0.00108 kcal/mol, the excess molar enthalpy ([1]; x2 = 0.5813) was -0.0449 ± 0.00108 kcal/mol and the excess molar enthalpy ([1]; x2 = 0.6117) was -0.0433 ± 0.00105 kcal/mol. It also gave an excess molar enthalpy ([1]; x2 = 0.6723) of -0.0395 ± 0.00098 kcal/mol, an excess molar enthalpy ([1]; x2 = 0.7364) of -0.0342 ± 0.000908 kcal/mol and an excess molar enthalpy ([1]; x2 = 0.8027) of -0.0278 ± 0.000813 kcal/mol. It also gave an excess molar enthalpy ([1]; x2 = 0.8717) of -0.0198 ± 0.000669 kcal/mol, an excess molar enthalpy ([1]; x2 = 0.9373) of -0.0107 ± 0.00055 kcal/mol and a mass density ([2]; x2 = 0.0538) of 1053.1 ± 1.1 kg/m3. For the same compound, the mass density ([2]; x2 = 0.1126) was 1041.51 ± 1 kg/m3, the mass density ([2]; x2 = 0.1693) was 1030.36 ± 1 kg/m3 and the mass density ([2]; x2 = 0.2307) was 1018.34 ± 0.95 kg/m3. It also gave a mass density ([2]; x2 = 0.287) of 1007.32 ± 0.9 kg/m3, a mass density ([2]; x2 = 0.3464) of 995.69 ± 0.86 kg/m3 and a mass density ([2]; x2 = 0.5231) of 961.26 ± 0.77 kg/m3. For the same compound, the mass density ([2]; x2 = 0.5825) was 949.74 ± 0.75 kg/m3, the mass density ([2]; x2 = 0.701) was 926.81 ± 0.71 kg/m3 and the mass density ([2]; x2 = 0.7586) was 915.69 ± 0.69 kg/m3. The mass density ([2]; x2 = 0.8777) was 892.8 ± 0.67 kg/m3 and the mass density ([2]; x2 = 0.94) was 880.88 ± 0.66 kg/m3.
